From patent US12466804B2 (BRISTOL-MYERS SQUIBB COMPANY, priority 2019, dated 2025) come the findings set out here.

The target of this assay is T1, human LPA1 (Homo sapiens, UniProt Q92633).
T1 construct: expressed in transfected cells; host or cells: Chinese hamster ovary (CHO) cells
The assay is described as follows: LPA1 functional antagonist assay (LPA-induced calcium flux). The note with it: CHO cells overexpressing human LPA1; calcium flux induced by 10 nM LPA; read-out: hLPA1 IC50. Type of assay: cell-based. On the procedure: The effectiveness of compounds of the present invention as LPA1 inhibitors can be determined in an LPA1 functional antagonist assay as follows:
The cells were then equilibrated to room temperature for 30 minutes before the assay. […] IC50 values were determined by fitting data to a 4-parameter logistic equation (GraphPad Prism, San Diego CA).

The IC50 is the concentration needed to halve the response being measured.

T1 sequence (Q92633 whole entry): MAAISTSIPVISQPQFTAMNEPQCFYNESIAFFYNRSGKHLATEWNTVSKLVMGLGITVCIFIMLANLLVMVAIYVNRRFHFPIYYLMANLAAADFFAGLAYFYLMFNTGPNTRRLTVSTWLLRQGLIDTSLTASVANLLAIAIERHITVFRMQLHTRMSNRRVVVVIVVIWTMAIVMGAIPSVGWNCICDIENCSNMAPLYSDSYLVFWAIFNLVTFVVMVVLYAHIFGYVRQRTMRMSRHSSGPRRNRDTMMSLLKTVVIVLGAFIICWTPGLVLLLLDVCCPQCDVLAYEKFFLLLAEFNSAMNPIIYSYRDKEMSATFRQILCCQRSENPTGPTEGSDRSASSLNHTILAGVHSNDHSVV

`Cc1nc(-c2nnn(C)c2COc2cc(OC3CC3)ncn2)ccc1OC[C@@H]1CC[C@H]1C(=O)O` (racemic) [Example 17, (±)-(1R,2R)-2-(((6-(5-(((6-cyclopropoxy-pyrimidin-4-yl)oxy)methyl)-1-methyl-1H-1,2,3-triazol-4-yl)-2-methylpyridin-3-yl)oxy)methyl)cyclobutane-1-carboxylic acid]: the IC50 stood at 66 nM.

For `Cc1nc(-c2nnn(C)c2Cn2nnc(CC3CC3)n2)ccc1OC[C@H]1CC[C@@H]1C(=O)O` (single isomer, unassigned) [Example 39], the IC50 worked out at 250 nM.

With `Cc1nc(-c2nnn(C)c2COC(=O)N(C)C2CCC2)ccc1OC[C@@H]1CC[C@H]1C(=O)O` (racemic) [Example 48, (±)-(1R,2R)-2-(((6-(5-(((cyclobutyl(methyl)carbamoyl)oxy)methyl)-1-methyl-1H-1,2,3-triazol-4-yl)-2-methylpyridin-3-yl)oxy)methyl)cyclobutanecarboxylic acid], the IC50 stood at 72 nM.

As to `Cc1nc(-c2nnn(C)c2Cn2nnc(CC3CC3)n2)ccc1OC[C@@H]1CC[C@H]1C(=O)O` (racemic) [Example 36, (±)-(1R,2R)-2-(((6-(5-((5-(Cyclopropylmethyl)-2H-tetrazol-2-yl)methyl)-1-methyl-1H-1,2,3-triazol-4-yl)-2-methylpyridin-3-yl)oxy)methyl)cyclobutane-1-carboxylic acid], the IC50 was determined as 86 nM.

On to `Cc1nc(-c2nnn(C)c2NC(=O)OCC(C)C)ccc1OC[C@@H]1CC[C@H]1C(=O)O` (racemic) [Example 34, (±)-(1R,2R)-2-(((6-(5-((Isobutoxycarbonyl)amino)-1-methyl-1H-1,2,3-triazol-4-yl)-2-methylpyridin-3-yl)oxy)methyl)cyclobutane-1-carboxylic acid], for which the IC50 was 1190 nM.

`CCCCN(C)C(=O)OCc1c(-c2ccc(OC[C@@H]3CC[C@H]3C(=O)O)c(C)n2)nnn1C` (racemic) [Example 50, (±)-(1R,2R)-2-(((6-(5-(((butyl(methyl)carbamoyl)oxy)methyl)-1-methyl-1H-1,2,3-triazol-4-yl)-2-methylpyridin-3-yl)oxy)methyl)cyclobutanecarboxylic acid]: the IC50 was 22 nM.

Regarding `Cc1nc(-c2nnn(C)c2CNc2noc(CC3CC3)n2)ccc1OC[C@H]1CC[C@@H]1C(=O)O` (racemic) [Example 60, (±)-(1S,2S)-2-(((6-(5-(((5-(Cyclopropylmethyl)-1,2,4-oxadiazol-3-yl)amino)methyl)-1-methyl-1H-1,2,3-triazol-4-yl)-2-methylpyridin-3-yl)oxy)methyl) cyclobutane-1-carboxylic acid], the IC50 was 1160 nM.

Consider `Cc1noc(-c2ccc(OCC3CC(C(=O)O)C3)cc2)c1COC(=O)N(C)C1CCCC1` (stereo not drawn) [Example 30, 3-((4-(4-(((Cyclopentyl(methyl)carbamoyl)oxy)methyl)-3-methylisoxazol-5-yl)phenoxy)methyl)cyclobutanecarboxylic acid], for which the half-maximal inhibitory concentration (IC50) came to 316 nM.

With `Cc1nc(-c2onc(C)c2COC(=O)N(C)C2CCCC2)ccc1OCC12CCC(C(=O)O)(C1)C2` [Example 58, 4-(((6-(4-(((cyclopentyl(methyl)carbamoyl)oxy)methyl)-3-methylisoxazol-5-yl)-2-methylpyridin-3-yl)oxy)methyl)bicyclo[2.1.1]hexane-1-carboxylic acid], the concentration for half-maximal inhibition (IC50) came to 22 nM.

Consider `Cc1nc(-c2nnn(C)c2CNC(=O)OCC(C)CC(F)(F)F)ccc1OC[C@@H]1CC[C@H]1C(=O)O` (mixture of isomers) [Example 44, (±)-(1R,2R)-2-(((2-methyl-6-(1-methyl-5-((((4,4,4-trifluoro-2-methylbutoxy)carbonyl)amino)methyl)-1H-1,2,3-triazol-4-yl)pyridin-3-yl)oxy)methyl)cyclobutane carboxylic acid], for which the IC50 was found to be 103 nM.

Consider `Cc1nc(-c2nnn(C)c2COC(=O)N(C)CC2CCC2)ccc1O[C@H]1C[C@@H](C(=O)O)C1` [Example 10, cis-3-((6-(5-((((cyclobutylmethyl)(methyl)carbamoyl)oxy)methyl)-1-methyl-1H-1,2,3-triazol-4-yl)-2-methylpyridin-3-yl)oxy)cyclobutane-1-carboxylic acid], for which the IC50 came out at 789 nM.

For `Cc1noc(-c2ccc(OCC34CC(C(=O)O)(C3)C4)cc2)c1COC(=O)N(C)C1CCCC1` [Example 53, 3-((4-(4-(((cyclopentyl(methyl)carbamoyl)oxy)methyl)-3-methylisoxazol-5-yl)phenoxy)methyl)bicyclo[1.1.1]pentane-1-carboxylic acid], the IC50 amounted to 604 nM.

In the case of `Cc1nc(-c2nnn(C)c2CNc2nccc(C(C)C)n2)ccc1OC[C@H]1CC[C@@H]1C(=O)O` (single isomer, unassigned) [Example 25], the IC50 turned out to be 51 nM.

With `Cc1nc(-c2onc(C)c2CNc2nccc(-c3ccccn3)n2)ccc1OC[C@@H]1CC[C@H]1C(=O)O` (racemic) [Example 5, (±)-(1R,2R)-2-(((2-methyl-6-(3-methyl-4-(((4-(pyridin-2-yl)pyrimidin-2-yl)amino)methyl)isoxazol-5-yl)pyridin-3-yl)oxy)methyl)cyclobutane-1-carboxylic acid], the IC50 worked out at 18 nM.

For the compound `Cc1noc(-c2ccc(OC[C@H]3CC[C@@H]3C(=O)O)cn2)c1CNc1nccc(-c2ccccn2)n1` (single isomer, unassigned) [Example 4], the IC50 turned out to be 14 nM.

As to `CCC(C)Cc1nc(NCc2c(-c3ccc(OCC45CC(C(=O)O)(C4)C5)c(C)n3)nnn2C)no1` (racemic) [Example 56, (±)-3-(((2-methyl-6-(1-methyl-5-(((5-(2-methylbutyl)-1,2,4-oxadiazol-3-yl)amino)methyl)-1H-1,2,3-triazol-4-yl)pyridin-3-yl)oxy)methyl)bicyclo[1.1.1]pentane-1-carboxylic acid], the IC50 is 586 nM.

Regarding `CN(C(=O)OCc1c(-c2ccc(OCC34CC(C(=O)O)(C3)C4)cn2)nnn1C)C1CCCC1` [Example 51, 3-(((6-(5-(((cyclopentyl(methyl)carbamoyl)oxy)methyl)-1-methyl-1H-1,2,3-triazol-4-yl)pyridin-3-yl)oxy)methyl)bicyclo[1.1.1]pentane-1-carboxylic acid], the IC50 was found to be 417 nM.

For the compound `Cc1nc(-c2nnn(C)c2COC(=O)NC2CCCCC2)ccc1OC[C@@H]1CC[C@H]1C(=O)O` (racemic) [Example 45, (±)-(1R,2R)-2-(((6-(5-(((cyclohexylcarbamoyl)oxy)methyl)-1-methyl-1H-1,2,3-triazol-4-yl)-2-methyl-pyridin-3-yl)oxy)methyl)cyclobutane-1-carboxylic acid], the IC50 turned out to be 435 nM.

Regarding `COc1cc(OCc2c(-c3ccc(OC[C@@H]4CC[C@H]4C(=O)O)c(C)n3)nnn2C)ncn1` (racemic) [Example 19, (±)-(1R,2R)-2-(((6-(5-(((6-methoxy-pyrimidin-4-yl)oxy)methyl)-1-methyl-1H-1,2,3-triazol-4-yl)-2-methylpyridin-3-yl)oxy)methyl)cyclobutane-1-carboxylic acid], the IC50 came to 121 nM.

For `CC[C@H](C)COC(=O)NCc1c(-c2ccc(OC[C@@H]3CC[C@H]3C(=O)O)c(C)n2)nnn1C` (racemic) [Example 43, (±)-(1R,2R)-2-(((2-methyl-6-(1-methyl-5-(((((S)-2-methyl-butoxy)carbonyl)amino)methyl)-1H-1,2,3-triazol-4-yl)pyridin-3-yl)oxy)methyl)cyclobutane carboxylic acid], the IC50 was 47 nM.

`Cc1nc(-c2nnn(C)c2COc2noc(C(C)C)n2)ccc1OC[C@@H]1CC[C@H]1C(=O)O` (racemic) [Example 16, (±)-(1R,2R)-2-(((6-(5-(((5-isopropyl-1,2,4-oxadiazol-3-yl)oxy)methyl)-1-methyl-1H-1,2,3-triazol-4-yl)-2-methylpyridin-3-yl)oxy)methyl)cyclobutane-1-carboxylic acid]: the IC50 came to 25 nM.

Take `Cc1nc(-c2nnn(C)c2COC(=O)N(C)CC2CCC2)ccc1OC[C@@H]1CC[C@H]1C(=O)O` (single isomer, unassigned) [Example 7]: the IC50 came out at 26 nM.

For the compound `Cc1nc(-c2nnn(C)c2CNC(=O)OCC(C)C)ccc1OC[C@@H]1CC[C@H]1C(=O)O` (racemic) [Example 41, (±)-(1R,2R)-2-(((6-(5-(((isobutoxy-carbonyl)amino)methyl)-1-methyl-1H-1,2,3-triazol-4-yl)-2-methy-lpyridin-3-yl)oxy)methyl)cyclobutanecarboxylic acid], the IC50 is 3750 nM.

In the case of `Cc1nc(-c2nnn(C)c2COc2cc(C3CC3)ncn2)ccc1OC[C@@H]1CC[C@H]1C(=O)O` (racemic) [Example 18, (±)-(1R,2R)-2-(((6-(5-(((6-cyclopropyl-pyrimidin-4-yl)oxy)methyl)-1-methyl-1H-1,2,3-triazol-4-yl)-2-methylpyridin-3-yl)oxy)methyl)cyclobutane-1-carboxylic acid], the IC50 is 83 nM.

With `CCCCOC(=O)NCc1c(-c2ccc(OC[C@@H]3CC[C@H]3C(=O)O)c(C)n2)nnn1C` (racemic) [Example 42, (±)-(1R,2R)-2-(((6-(5-(((butoxy-carbonyl)amino)methyl)-1-methyl-1H-1,2,3-triazol-4-yl)-2-methyl-pyridin-3-yl)oxy)methyl)cyclobutanecarboxylic acid], the IC50 came out at 649 nM.

Regarding `Cc1nc(-c2nnn(C)c2COC(=O)N(C)CC(C)C)ccc1OC[C@@H]1CC[C@H]1C(=O)O` (racemic) [Example 49, (±)-(1R,2R)-2-(((6-(5-(((isobutyl(methyl)carbamoyl)oxy)methyl)-1-methyl-1H-1,2,3-triazol-4-yl)-2-methylpyridin-3-yl)oxy)methyl)cyclobutanecarboxylic acid], the IC50 was determined as 232 nM.

Consider `CCc1ccnc(OCc2c(-c3ccc(OC[C@@H]4CC[C@H]4C(=O)O)c(C)n3)nnn2C)n1` (racemic) [Example 14, (±)-(1R,2R)-2-(((6-(5-(((4-ethylpyrimidin-2-yl)oxy)methyl)-1-methyl-1H-1,2,3-triazol-4-yl)-2-methylpyridin-3-yl)oxy)methyl)cyclobutane-1-carboxylic acid], for which the IC50 stood at 382 nM.
